Reference: patent US9957297B2, “Template-fixed peptidomimetics as inhibitors of FPR1” (POLYPHOR AG, priority 2011, dated 2018)
Where a SMILES comes first, the peptide text is derived from it. Bridges are numbered along the chain shown (N, C = ends). [ ]: non-standard residue; d: D form. Dab = NCC[C@H](N)C(=O)O

The compounds below were run against T1, FPR1 (Homo sapiens, UniProt P21462) (assay: FPR1 β-arrestin recruitment assay (PathHunter CHO-FPR1, antagonistic mode)). Settings: CHO FPR1 β-arrestin cells; antagonistic assay vs reference agonist fMLF at its EC80; 60 min preincubation.
T1 construct: host or cells: CHO (PathHunter CHO-FPR1 β-arrestin cells)
T1 sequence (P21462 1-350): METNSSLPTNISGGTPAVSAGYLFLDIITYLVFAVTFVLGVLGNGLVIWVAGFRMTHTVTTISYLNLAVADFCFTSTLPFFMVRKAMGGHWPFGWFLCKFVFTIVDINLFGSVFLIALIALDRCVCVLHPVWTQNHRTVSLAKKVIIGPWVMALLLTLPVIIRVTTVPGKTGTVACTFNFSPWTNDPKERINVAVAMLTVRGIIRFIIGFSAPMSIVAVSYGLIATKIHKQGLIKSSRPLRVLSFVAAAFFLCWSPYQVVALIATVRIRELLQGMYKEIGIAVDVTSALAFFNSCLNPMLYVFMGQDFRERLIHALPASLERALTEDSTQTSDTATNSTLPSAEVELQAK
Assay type: cell-based
Experimental: 2.2 FPR1 β-Arrestin Recruitment Assay
The PathHunter CHO—FPR1 (DiscoverX) assay was performed according to the manufacturer's protocol. In brief, CHO FPR1 β-arrestin cells were seeded at a density of 9000 cells per well in 20 μl of Ham's F12 medium (Invitrogen) in black 384-well culture plates and incubated overnight at 37° C. in a humidified atmosphere with 5% CO2. The next day, serial dilutions of the β-hairpin peptidomimetics of this invention have been prepared in DMSO and subsequently diluted in HBSS buffer supplemented with 20 mM Hepes and 0.1% BSA.
For antagonistic assay, 5 μl of compound solution or buffer was added to the cells with a final DMSO concentration of 0.5% (v/v). The plate was incubated for 60 min at 37° C. with 5% CO2 before addition of […] of the reference agonist fMLF peptide (Sigma-Aldrich) at its EC80 concentration. After 90 min of incubation at 37° C. with 5% CO2, 15 μl of beta-Glo detection reagent (Promega) were added. Reaction was developed for 20 min at room temperature and chemiluminescence was measured with a Victor2V (Perkin Elmer) luminescence reader.

`CC[C@H](C)[C@@H]1NC(=O)[C@H]([C@@H](C)O)NC(=O)[C@H](Cc2c[nH]c3ccccc23)NC(=O)[C@H]2CCCN2C(=O)CNC(=O)[C@H](Cc2c[nH]c3ccccc23)NC(=O)[C@@H]2CSSC[C@H](NC1=O)C(=O)N[C@@H](Cc1ccc(O)cc1)C(=O)N[C@@H](CCC(N)=O)C(=O)N[C@@H](CCCCN)C(=O)N1CCC[C@@H]1C(=O)N1CCC[C@H]1C(=O)N[C@@H](Cc1ccc(O)cc1)C(=O)N[C@@H](Cc1c[nH]cn1)C(=O)N[C@@H](C)C(=O)N2` [Ex. 40, cyclo(-Tyr-His-Ala-Cys-Trp-Gly-^DPro-Trp-Thr-Ile-Cys-Tyr-Gln-Lys-^DPro-Pro-)] (cyclo(YHACWG[dP]WTICYQK[dP]P); disulfide 4-11) and `CC[C@H](C)[C@@H]1NC(=O)[C@H]([C@@H](C)O)NC(=O)[C@H](Cc2c[nH]c3ccccc23)NC(=O)[C@H]2CCCN2C(=O)CNC(=O)[C@H](Cc2c[nH]cn2)NC(=O)[C@@H]2CSSC[C@H](NC1=O)C(=O)N[C@@H](Cc1ccc(O)cc1)C(=O)N[C@@H](CCC(=O)O)C(=O)N[C@@H](CCCCN)C(=O)N1CCC[C@@H]1C(=O)N1CCC[C@H]1C(=O)N[C@@H](Cc1ccc(O)cc1)C(=O)N[C@@H](Cc1c[nH]cn1)C(=O)N[C@@H](C)C(=O)N2` [compound 30, cyclo(-Tyr-His-Ala-Cys-His-Gly-^DPro-Trp-Thr-Ile-Cys-Tyr-Glu-Lys-^DPro-Pro-)] (cyclo(YHACHG[dP]WTICYEK[dP]P); disulfide 4-11) are within error of each other in IC50: 96 ± 30 nM for the first, 189 ± 79 nM for the second.

`CC[C@H](C)[C@@H]1NC(=O)[C@H]([C@@H](C)O)NC(=O)[C@H](Cc2c[nH]c3ccccc23)NC(=O)[C@H]2CCCN2C(=O)CNC(=O)[C@H](Cc2c[nH]cn2)NC(=O)[C@@H]2CSSC[C@H](NC1=O)C(=O)N[C@@H](Cc1ccc(O)cc1)C(=O)N[C@@H](CCC(=O)O)C(=O)N[C@@H](CCCCN)C(=O)N1CCC[C@@H]1C(=O)N[C@@H](CCN)C(=O)N[C@@H](Cc1ccc(O)cc1)C(=O)N[C@@H](Cc1c[nH]cn1)C(=O)N[C@@H](CCCCN)C(=O)N2` [Ex. 89, cyclo(-Tyr-His-Lys-Cys-His-Gly-^DPro-Trp-Thr-Ile-Cys-Tyr-Glu-Lys-^DPro-Dab-)] (cyclo(YHKCHG[dP]WTICYEK[dP][Dab]); disulfide 4-11) and `CC[C@H](C)[C@@H]1NC(=O)[C@H]([C@@H](C)O)NC(=O)[C@H](Cc2c[nH]c3ccccc23)NC(=O)[C@H]2CCCN2C(=O)CNC(=O)[C@H](Cc2c[nH]cn2)NC(=O)[C@@H]2CSSC[C@H](NC1=O)C(=O)N[C@@H](Cc1ccc(O)cc1)C(=O)N[C@@H](CCC(=O)O)C(=O)N[C@@H](CCCCN)C(=O)N[C@H](C)C(=O)N[C@@H](CCC(=O)O)C(=O)N[C@@H](Cc1ccc(O)cc1)C(=O)N[C@@H](Cc1c[nH]cn1)C(=O)N[C@@H](CCCCN)C(=O)N2` [compound 6, cyclo(-Tyr-His-Lys-Cys-His-Gly-^DPro-Trp-Thr-Ile-Cys-Tyr-Glu-Lys-^DAla-Glu-)] (cyclo(YHKCHG[dP]WTICYEK[dA]E); disulfide 4-11) are within error of each other in IC50: 189 ± 65 nM for the first, 124 ± 10 nM for the second.

With `CC[C@H](C)[C@@H]1NC(=O)[C@H]([C@@H](C)O)NC(=O)[C@H](Cc2c[nH]c3ccccc23)NC(=O)[C@H]2CCCN2C(=O)CNC(=O)[C@H](Cc2c[nH]cn2)NC(=O)[C@@H]2CSSC[C@H](NC1=O)C(=O)N[C@@H](Cc1ccc(O)cc1)C(=O)N[C@@H](CCC(=O)O)C(=O)N[C@@H](CCCCN)C(=O)N[C@H](CCCCN)C(=O)N[C@@H](CCC(=O)O)C(=O)N[C@@H](Cc1ccc(O)cc1)C(=O)N[C@@H](Cc1c[nH]cn1)C(=O)N[C@@H](CCCCN)C(=O)N2` [compound 5, cyclo(-Tyr-His-Lys-Cys-His-Gly-^DPro-Trp-Thr-Ile-Cys-Tyr-Glu-Lys-^DLys-Glu-)] (cyclo(YHKCHG[dP]WTICYEK[dK]E); disulfide 4-11) the IC50 was 124 ± 67 nM.
